Tested on: P. falciparum 3D7 growth, pLDH absorbance
Assay: blood-stage malaria parasite growth potency – strain 3D7, dose response (AID 2305)

Compound Cc1cccc(-c2cccc(CNc3nc(NCCc4ccc(O)cc4)nc(N4CCNCC4)n3)c2)c1 has an IC50 of 1190 nM.

Nc1c(Cl)cc(C(O)CNCCCCCCCCCc2ccccn2)cc1Cl (stereo not drawn) showed an IC50 of 860 nM.

In the case of COc1ccc2nccc([C@@H](O)CN3CCC(NCc4cc5ccccn5n4)CC3)c2c1, the IC50 is reported as 1570 nM.

Cc1ccc2nc(-c3ccccc3)cc(NN=Cc3cccnc3)c2c1 showed an IC50 of 690 nM.

For COc1ccc2c(c1C1CCN(CCCCNC(=O)c3ccc(NC(=O)c4ccc(Cl)cc4)cc3)CC1)CCCC2, the IC50 was 340 nM.

O=C1OC(c2ccccc2)(c2ccccc2)CN1C1CCN(Cc2ccc(O)c(Cl)c2)C1 (stereo not drawn) was tested, and the IC50 was 960 nM.

Work on Cc1cc(F)ccc1Nc1nc(N(C)c2ccccc2)c2cccc(OCCO)c2n1 yielded an IC50 of 800 nM.

Work on Nc1c2c(nc3ccc(C(=O)Nc4ccccc4)cc13)CCCC2 yielded an IC50 of 710 nM.

Compound Cn1nc(-c2ccc(CNC3CCc4ccccc43)cc2)c2cnc(NCCCN3CCCC3)nc21 (stereo not drawn) has an IC50 of 1110 nM.

Work on CC(C)N1CCC(N(Cc2ccc(-c3ccc(Cl)cc3)cc2)C(=O)Cn2c(CCc3cccc(F)c3F)cc(=O)c3ccccc32)CC1 yielded an IC50 of 930 nM.

COc1ccc2nccc([C@@H](O)CN3CCC(NC(=O)C(c4cc5ccccc5o4)N4CCN(c5ccc(F)cc5)CC4)CC3)c2c1 (stereo partly drawn) was tested, and the IC50 was 200 nM.

COc1ccc(CN2CCN(Cc3cc(Cl)ccc3O)CC2CCO)c(C)c1C (stereo not drawn) was tested, and the IC50 was 1490 nM.

With O=[N+]([O-])c1ccc(Nc2nc(NCc3ccccc3)nc(NN=Cc3ccccc3[N+](=O)[O-])n2)cc1 the IC50 was 160 nM.

In the case of CC1CCC2(CC1)N=C(N)N=C(N)N2OCc1cc2ccccc2c2ccccc12 (stereo not drawn), the IC50 is reported as 240 nM.

For O=C(Nc1nccs1)c1cc(-c2cccnc2)nc2ccc(Br)cc12, the IC50 was 400 nM.

In the case of CC1(C)OC[C@]2(C)[C@@H](CC[C@]3(C)C4=CC(=O)CCC4CC[C@@H]23)O1 (stereo partly drawn), the IC50 is reported as 280 nM.

CC(C)(C)c1cc([N+](=O)[O-])cc(C(=O)Nc2ccccc2C(F)(F)F)c1O showed an IC50 of 650 nM.

Cc1ccc(NC(=O)c2ccc(CN3CCCN(CC4CCCCC4)CC3)cc2)cc1F showed an IC50 of 290 nM.

In the case of Cc1noc(C)c1-c1ccc2c(Nc3ccccc3C(C)(C)C)c(C(=O)NCc3cccc4ccccc34)cnc2c1, the IC50 is reported as 940 nM.

FC(F)(F)c1ccc2nc(-c3cccc(-c4cccc(CN5CCN(c6ccncc6)CC5)c4)c3)[nH]c2c1 gave an IC50 of 160 nM.

Clc1ccc(OCc2ccccc2)c(Cc2ccc(-c3nc4ccncc4[nH]3)o2)c1 was tested, and the IC50 was 750 nM.

Compound COCCNCc1cccc(-c2ccc(CN(C(=O)Nc3ccccc3)C3CCN(Cc4ccccc4)CC3)cc2)c1 has an IC50 of 770 nM.

CCCCN1Cc2c(n(CC(=O)Nc3ccccc3)c3cc(-c4ccccc4)nn3c2=O)C1=O was tested, and the IC50 was 810 nM.

Nc1c(Cl)cc(C(O)CNCCCCCCOCCc2ccc(CO)s2)cc1Cl (stereo not drawn) gave an IC50 of 1050 nM.

Cc1ccc(C(C)C)c(Oc2ccc3nc(N)nc(N)c3c2)c1 was tested, and the IC50 was 10 nM.

Work on CCCn1c(=N)c(C(=O)NCCc2ccccc2)cc2c(=O)n3cccc(C)c3nc21 yielded an IC50 of 1120 nM.

O=C(COc1ccccc1)NC1CCN(c2ccnc3cc(Cl)ccc23)C1 (stereo not drawn) showed an IC50 of 700 nM.

Cc1ccc(NC(=O)c2ccc3ncccc3c2)cc1OC1CCN(CCC(C)C)C1 (stereo not drawn) was tested, and the IC50 was 350 nM.

With c1ccc(CN2CCC(NCc3cccc(-c4cncc5ccccc45)c3)CC2)cc1 the IC50 was 1360 nM.

Compound CNC(=O)COC(=O)c1c2c(nc3ccccc13)C(=Cc1ccc3c(c1)OCO3)CCC2 has an IC50 of 640 nM.

Compound Cc1cccc(N2C(N)=NC(N)=NC2(C)C)c1C has an IC50 of 760 nM.

Compound O=c1n(CC2CCCCC2)c2cc(Cl)cc(OCCNc3ccncc3)c2n1CC1CCCCC1 has an IC50 of 590 nM.

Work on Clc1ccc(CNc2ccnc(NCc3ccc4c(c3)OCCCO4)n2)c(Cl)c1 yielded an IC50 of 990 nM.

In the case of CC1CCN(c2nc(C(=O)Nc3cccc4c3CCCC4)c(C(C)C)s2)CC1, the IC50 is reported as 1040 nM.

CC(O)C1CCCCN1C(=O)c1cccc(-c2cccc(-c3nc4ccc(F)cc4[nH]3)c2)c1 (stereo not drawn) gave an IC50 of 540 nM.

Cc1ccc(C)c(NC(=O)NCCNc2ccnc(Nc3ccc(F)cc3)n2)c1 showed an IC50 of 820 nM.

O=C(NC1CCN(Cc2ccccc2)CC1)c1cccc(-c2cc3cc(Cl)c(Cl)cc3[nH]2)c1 was tested, and the IC50 was 720 nM.

OC(CNCCCCCCNCC(O)c1ccc(Cl)c(Cl)c1)c1ccc(Cl)c(Cl)c1 (stereo not drawn) showed an IC50 of 910 nM.

O=C(/C=C/c1ccc(Cl)c(Cl)c1)N1CCC(CCCN2CCC(c3c[nH]c4ccccc34)CC2)CC1 gave an IC50 of 710 nM.

In the case of N#Cc1ccc(C=CC(=O)NC2CCC(CCN3CCc4ccc(-c5cnccn5)cc4CC3)CC2)cc1 (stereo not drawn), the IC50 is reported as 610 nM.

In the case of Cc1cccc2[nH]c(-c3cccc(-c4cccc(NC(=O)NCc5ccccc5)c4)c3)nc12, the IC50 is reported as 520 nM.

Compound CON=C1CCC(Cn2ccnc2)(c2ccc(Cl)cc2Cl)CC1 (stereo not drawn) has an IC50 of 880 nM.

With CO/C(=C\C=C\c1cc2cc(Cl)c(Cl)cc2[nH]1)C(=O)NC1CCN(CCOc2ccccc2)CC1 the IC50 was 610 nM.

Work on CN(C)CCN(Cc1ccc(-c2ccc(CNCCc3ccccc3)cc2)nc1)C(=O)CCC1CCCC1 yielded an IC50 of 800 nM.

O=C1CSc2ccc(CNC3CCN(CCc4c(Cl)cnc5ccc(Cl)cc45)CC3)nc2N1 was tested, and the IC50 was 230 nM.

For CCC(C)c1ccc(O)c(NC(=O)c2cncc(Br)c2)c1 (stereo not drawn), the IC50 was 800 nM.

For O=C(Nc1ccccc1)Nc1cccc(-c2nn3c(OCCN4CCCC4)cccc3c2-c2ccncc2)c1, the IC50 was 400 nM.

COc1ccc2nc3cc(Cl)ccc3c(NCc3ccccc3)c2c1 was tested, and the IC50 was 870 nM.

Compound O=C(Nc1cccc(-c2cccc(-c3nc4ccc(C(F)(F)F)cc4[nH]3)c2)c1)c1ccc(=O)[nH]n1 has an IC50 of 660 nM.

With COc1cc(F)c2ncc(F)c(CCN3C[C@H](CNCc4ccc5c(n4)NC(=O)CS5)[C@H](O)C3)c2c1 the IC50 was 460 nM.

Compound Cc1cc(C(=O)Nc2nc(-c3ccccn3)nc3ccsc23)no1 has an IC50 of 810 nM.

For COc1ccc2nccc([C@@H](O)CN3CCC(NCc4cc5c(cc4F)SCC(=O)N5)CC3)c2n1, the IC50 was 1000 nM.

Work on CC1CCCN1Cc1cccc(-c2ccc(C(=O)NCCOc3ccccc3)s2)c1 (stereo not drawn) yielded an IC50 of 930 nM.

CCCN(CCC)C(=O)c1cc(C(=O)N[C@@H](Cc2ccccc2)[C@H](O)CNC(C)(C)c2cccc(OC)c2)cc(N2CCCCS2(=O)=O)c1 was tested, and the IC50 was 30 nM.

C=CCC(C(=O)Nc1ccnc2ccc(OC)cc12)C1CCN(CCCCCCC)CC1 (stereo not drawn) showed an IC50 of 240 nM.

In the case of CCCC(C)NC(=O)C(N)Cc1cccc(I)c1 (stereo not drawn), the IC50 is reported as 980 nM.

For CC(C)c1sc(N2CCN(C)CC2)nc1C(=O)Nc1cccc2c1CCCC2, the IC50 was 1280 nM.

Compound O=C(C=Cc1ccc(-c2nc3ccccc3[nH]2)cc1)NC1CCN(Cc2ccccc2)CC1 has an IC50 of 740 nM.

In the case of Cc1cc(NN=Cc2cccc(Cl)c2)c2ccccc2n1, the IC50 is reported as 260 nM.

Compound COc1ccc(-c2cnc(N)c(-c3ccc(C(N)=O)cc3)c2)cc1OC has an IC50 of 900 nM.

In the case of COc1cccc2c(NN=Cc3cccc([N+](=O)[O-])c3)ccnc12, the IC50 is reported as 750 nM.

Cn1ncc2ccc(Nc3nccc(-c4ccc5c(c4)c(N)nn5C)n3)cc21 showed an IC50 of 650 nM.

In the case of COC(=O)[C@@H](NC(=O)[C@H](CC(C)C)Nc1ccc(C#N)c2ccccc12)c1ccc(O)cc1, the IC50 is reported as 790 nM.

Compound O=C(Nc1ccon1)c1cc(-c2cccnc2)nc2ccc(Br)cc12 has an IC50 of 740 nM.

Compound Cc1ccc(CNC(=O)[C@H](CC(C)C)Nc2cc(C)nc(NCC3CCCCC3)n2)cc1 has an IC50 of 930 nM.

O=C(C=Cc1cc([N+](=O)[O-])ccc1Cl)NC1CCC(CN2CCC(c3c[nH]c4ccccc34)CC2)CC1 (stereo not drawn) gave an IC50 of 740 nM.

In the case of O=C(Nc1ccc(N2CCCN(Cc3cccc(F)c3)CC2)cc1)c1cccs1, the IC50 is reported as 550 nM.

Cc1ccccc1C1CCN(C2CCC(NC(=O)/C=C/c3ccc(Cl)cc3)CC2)CC1 (stereo not drawn) gave an IC50 of 800 nM.

CC12CCC(C(=O)N(CC(O)Cn3c4ccc(Cl)cc4c4cc(Cl)ccc43)C1=O)C2(C)C (stereo not drawn) was tested, and the IC50 was 840 nM.

Compound CS(=O)(=O)Nc1ccc(-c2ccc3ccnc(N)c3c2)cc1 has an IC50 of 610 nM.

With Cc1cccc2[nH]c(-c3ccc(-c4cccc(CNCc5cnn(-c6ccccc6)n5)c4)s3)nc12 the IC50 was 550 nM.

With NCCCN(Cc1ccc(Cl)c(Cl)c1)C(=O)Nc1ccc(Cl)c(Cl)c1 the IC50 was 900 nM.

Compound CC(Cc1ccc(NC(=O)[C@H](C)NCCc2cccc(Cl)c2)cc1)NCCc1cccc(Cl)c1 (stereo partly drawn) has an IC50 of 660 nM.

In the case of COc1ccc(OC)c(-c2ccc(O)c(CNCC(C)c3ccccc3)c2)c1 (stereo not drawn), the IC50 is reported as 930 nM.

For CN(C)CCOc1cc(NC(=O)Nc2ccc(-c3ccncc3)c(Cl)c2)ccc1I, the IC50 was 140 nM.

CCCN(CCC)C(C)CCC(C)Nc1c2ccc(Cl)cc2nc2ccc(OC)cc12 (stereo not drawn) showed an IC50 of 70 nM.

For O=C(Cc1ccccc1)NC1(c2ccccc2)CCN(CCc2c[nH]c3ccc(F)cc23)CC1, the IC50 was 880 nM.

COc1ccc(Nc2nccc(N3CCC(NC(=O)c4cccc(NC(C)=O)c4)C3)n2)cc1 (stereo not drawn) gave an IC50 of 990 nM.

Compound CC(O)C1CCCCN1C(=O)c1ccc(-c2ccc(-c3nc4ccccc4[nH]3)s2)cc1 (stereo not drawn) has an IC50 of 970 nM.

COc1cc(/C=C/C(=O)NC2CCC(N3CCC(c4ccccc4C)CC3)CC2)cc(OC)c1 (stereo not drawn) gave an IC50 of 980 nM.

For CCN(CC)CCN(Cc1ccc(-c2ccc(C(F)(F)F)cc2)cc1)C(=O)c1ccc(-c2ccc(C#N)cc2)cc1, the IC50 was 1110 nM.

Compound CCCO[C@H](C(=O)OC)[C@@H](CC1Cc2ccccc2C1)C(=O)NCCC1=CCCCC1 has an IC50 of 970 nM.

Work on Cc1cc(NN=Cc2cccc([N+](=O)[O-])c2)c2cc(F)ccc2n1 yielded an IC50 of 590 nM.

COc1ccc(N2CCN(CCCC/C=C/c3ccc(NC(=O)c4cc(Cl)cc(Cl)c4)cc3)CC2)c(OC)c1 was tested, and the IC50 was 660 nM.

COc1cc(-c2[nH]c(-c3ccc(OCCN(C)C)cc3)cc2-c2ccncc2)ccc1Cl showed an IC50 of 1790 nM.

For CN(c1ccnc(Nc2ccc(CS(C)(=O)=O)cc2)n1)C1CCN(Cc2ccccc2)CC1, the IC50 was 1400 nM.

CN(C)CCNc1cc(-c2ccc3ccccc3c2)nc2ccccc12 showed an IC50 of 350 nM.

Compound CC(O)C1CCCCN1C(=O)c1ccc(-c2ccc(-c3nc4ccc(F)cc4[nH]3)cc2)cc1 (stereo not drawn) has an IC50 of 440 nM.

Cn1c(NC(=O)C2CCC(CNC(=O)c3ccc(O)c(-c4cccc([N+](=O)[O-])c4)c3)CC2)nc2ccccc21 (stereo not drawn) showed an IC50 of 980 nM.

COc1ccc(Cl)cc1NC(=O)CN(C)C(=O)c1cnn(-c2ccccc2)n1 was tested, and the IC50 was 230 nM.

COc1cc(C(=O)Nc2ccc(-c3nc4ccccc4[nH]3)cc2)cc(OC)c1OC gave an IC50 of 980 nM.

In the case of CC(C)COc1ccc(Cl)cc1Cc1ccc(-c2nc3cc(F)c(F)cc3[nH]2)o1, the IC50 is reported as 890 nM.

Cc1cc(N[C@@H](CC(C)C)C(=O)NCc2cccc(F)c2)nc(NCCc2ccc(F)cc2)n1 was tested, and the IC50 was 1470 nM.

Compound CCOC(=O)c1ccc(NC(=O)N[C@@H](Cc2ccc(O)cc2)C(=O)NC2CCN(Cc3ccc4c(c3)OCO4)CC2)cc1 has an IC50 of 1060 nM.

With CC(C)(CNC(=O)[C@H]1CCCCN1)c1nc(-c2ccc(Cl)c(O)c2)c(-c2ccncc2)[nH]1 the IC50 was 730 nM.

COc1cc(NCCCNC(=O)c2ccc(Cl)c(Cl)c2)nc2ccccc12 gave an IC50 of 140 nM.

COc1ccc(-c2nc3cccnc3n2CC(=O)Nc2cc(Cl)c(Cl)cc2Cl)c(OC)c1 showed an IC50 of 720 nM.

CC(=O)N[C@@H]1c2cc(C(C)=O)ccc2OC(C)(C)[C@@H]1O was tested, and the IC50 was 980 nM.
